Assay results as given in ChEMBL document CHEMBL1153355, “Synthesis and cytotoxic activities of novel phenacylimidazolium bromides” (Bioorg Med Chem Lett, 2009).

Assays:
Assay type in all cases: functional, cell-based
[1] = test system: HEp-2; experiment: Cytotoxicity against human Hep2 cells by MTT assay
[2] = test system: HL-60; experiment: Cytotoxicity against human HL60 cells by MTT assay
[3] = test system: A-431; experiment: Cytotoxicity against human A431 cells by MTT assay
[4] = test system: MKN-28; experiment: Cytotoxicity against human MKN28 cells by MTT assay
[5] = test system: SMMC-7721; experiment: Cytotoxicity against human SMMC7721 cells by MTT assay
[6] = Cytotoxicity against human GLC15 cells by MTT assay
[7] = test system: K562; experiment: Cytotoxicity against human K562 cells by MTT assay
[8] = test system: SK-OV-3; experiment: Cytotoxicity against human SKOV3 cells by MTT assay

| SMILES | IC50 [1] [µM] | IC50 [2] [µM] | IC50 [3] [µM] | IC50 [4] [µM] | IC50 [5] [µM] | IC50 [6] [µM] | IC50 [7] [µM] | IC50 [8] [µM] |
| --- | --- | --- | --- | --- | --- | --- | --- | --- |
| CC(C)c1cccc(C(C)C)c1-n1cc[n+](CC(=O)c2ccc(Br)cc2)c1 | 9.2 | 3.8 | 4.6 | 35.3 | 10.9 | 18.4 | 2.8 | 11.3 |
| Cc1cc(C)c(-n2cc[n+](CC(=O)C(C)(C)C)c2)c(C)c1 | 132 | 113 | > 200 | > 200 | 154 | > 200 | > 200 | 192 |
| COc1ccc(CCn2cc[n+](CC(=O)c3ccc4ccccc4c3)c2)cc1OC | 77.2 | 54.2 | 75 | 85.4 | 34.4 | 50.2 | 169 | 11 |
| COc1ccc(C(=O)C[n+]2ccn(CCc3ccc(OC)c(OC)c3)c2)cc1 | 62.3 | 50.4 | 188 | > 200 | 62.3 | 33.4 | > 200 | 37.4 |
| Cc1cc(C)c(-n2cc[n+](CC(=O)c3ccccc3)c2)c(C)c1 | 97.6 | 31.3 | 15.6 | > 200 | 16.8 | > 200 | > 200 | 29.9 |
| COc1ccc(C(=O)C[n+]2ccn(C(C)(C)C)c2)cc1 | 117 | > 200 | 66.2 | > 200 | > 200 | 179 | > 200 | > 200 |
| O=C(C[n+]1ccn(C23CC4CC(CC(C4)C2)C3)c1)c1ccccc1 | 93.4 | 39 | 13.3 | 198 | 108 | 108 | > 200 | 59.3 |
| O=C(C[n+]1ccn(C23CC4CC(CC(C4)C2)C3)c1)c1ccc2ccccc2c1 | 0.8 | 4.2 | 6.4 | 12.8 | 7.7 | 0.8 | 3.4 | 4 |
| Cc1cc(C)c(-n2cc[n+](CC(=O)c3ccc4c(c3)COC4)c2)c(C)c1 | 12.3 | 6.1 | 18.2 | 85.3 | 33.5 | 23.5 | 70.1 | 31.5 |
| CC(C)c1cccc(C(C)C)c1-n1cc[n+](CC(=O)c2ccc3c(c2)COC3)c1 | 11.6 | 4.5 | 5.1 | 59.6 | 44.3 | 36.9 | 12.1 | 25.5 |
| Cc1cc(C)c(-n2c[n+](CC(=O)c3ccc4ccccc4c3)c(C)c2C)c(C)c1 | 1.9 | 4.1 | 3.9 | 1.7 | 9.8 | 4.3 | 0.2 | 3.7 |
| CC(=O)Cc1ccc(-n2cc[n+](CC(=O)c3ccccc3)c2)cc1 | > 200 | 25.8 | 7 | > 200 | 53.4 | 53.5 | > 200 | > 200 |
| COc1ccc(C(=O)C[n+]2ccn(-c3ccc(CC(C)=O)cc3)c2)cc1 | 84.8 | 44.4 | 14.5 | 140 | 91.6 | 26.5 | 16.7 | 61.1 |
| COc1ccc(C(=O)C[n+]2ccn(-c3ccc([N+](=O)[O-])cc3)c2)cc1 | 41.6 | 8.6 | 75.5 | 113 | > 200 | 97.6 | 113 | 26.6 |
| COc1ccc(C(=O)C[n+]2ccn(-c3c(C(C)C)cccc3C(C)C)c2)cc1 | 2.8 | 1.1 | 4.2 | 10 | 9.9 | 5.1 | 2.6 | 5 |
| Cc1cc(C)c(-n2cc[n+](CC(=O)c3ccc(Br)cc3)c2)c(C)c1 | 22.1 | 13.4 | 5.4 | 76.6 | 23.8 | 36.9 | 21.4 | 33.1 |
| CC(C)(C)n1cc[n+](CC(=O)c2ccccc2)c1 | > 200 | > 200 | > 200 | > 200 | > 200 | > 200 | > 200 | > 200 |
| COc1ccc(C(=O)C[n+]2ccn(C34CC5CC(CC(C5)C3)C4)c2)cc1 | 7.1 | 14.7 | 6.3 | 158 | 27.9 | 59.3 | 1.5 | 5.6 |
| COc1ccc(C(=O)C[n+]2ccn(-c3c(C)cc(C)cc3C)c2)cc1 | 1.5 | 3.1 | 1.7 | 5 | 4.7 | 2.2 | 2.4 | 1.6 |
| CC(C)c1cccc(C(C)C)c1-n1cc[n+](CC(=O)c2ccc3ccccc3c2)c1 | 3.5 | 1.5 | 14.7 | 9.6 | 10.5 | 6.2 | 0.4 | 1.9 |
| Cc1cc(C)c(-n2cc[n+](CC(=O)c3ccc4ccccc4c3)c2)c(C)c1 | 0.7 | 2.8 | 4.4 | 8.7 | 6.8 | 0.4 | 2.7 | 2.1 |
